What was measured:
[1] = system: AR and CBP or p300 ternary complex; test: Ternary complex formation assay (sandwich ELISA on lysates of treated VCaP cells: AR capture, CBP or p300 detection); type: cell-based; conditions: VCaP cells treated with bifunctional for 1.5 hours; lysate; anti-AR capture, CBP or p300 antibody detection
Protocol: Example B-1: Ternary Complex Formation Assay
Preparation of Mouse Anti-AR Antibody Coated 96 Well Plates
Black MaxiSorp plates: coat with 50 μL of mouse 1/50 diluted AR antibody (Monoclonal Antibody (AR 441 from Thermo Fisher); diluted in phosphate buffered saline (PBS). Spin the liquid to the bottom of the wells, if necessary. Incubate overnight at 4° C. Next day, wash 3 times with 200 μL of TBST. Block with 200 μL of blocking buffer (5% BSA in TBST) at room temperature for 2 hours (BSA: A4503 or A2153 from Sigma). Wash plates 3 times with TBST. Plates are ready for lysates
Preparation of Dimerizer Treated Lysates
Culture cells in 96 wells at 50K VCaP cells/well for at least 3 days. Plate in 5% Omega charcoal stripped FBS in total volume of 200 uL. Treat with bifunctional for 1.5 hours by adding 1 μL of 200× stock in DMSO. Aspirate media/compound. Add and pipet-to-mix 70 μL of 1× AlphaLisa Lysis Buffer to each well (Perkin Elmer, AlphaLISA SureFire Ultra, diluted in water). Pipet up and down when adding lysis buffer to disrupt cells. Let lysis proceed for 30 min at 4° C.
Incubate for 1 hour at room temperature. Flick out the lysates. Wash 3 times with TBST. Add 75 uL of rabbit CBP or p300 antibody to each well (diluted 1:5000 in blocking buffer (5% BSA in TBST). CBP antibody: (D6C5) Rabbit mAb #7389; p300 antibody: (D8Z4E) Rabbit mAb #86377. Incubate overnight at 4° C. Wash 3 times with 300 uL TBST, each time on shaker for 5-10 min. Prepare goat anti-rabbit antibody conjugated to HRP (1/100K dilution in blocking buffer) Invitrogen Catalog number: 32260. Add 75 uL of HRP-conjugated goat anti-rabbit antibody. Incubate at room temperature for 1 hour. Flick out the HRP-antibody mixture. Wash 7-8 times with TBST, each time on shaker for 10 min. Later washes try to overflow the wells so that no residual HRP remains bound to the sides of the well. Prepare and add 75 uL/well of QuantaRed Enhance Chemifluorescent HRP Substrate solution. Immediately read fluorescence on BMG ClarioStar (ex: 570/em 585), and repeat the read in 5 minutes and 15 minutes.

[2] = system: VCaP cells; test: VCaP growth inhibition assay (CTG); type: cell-based; conditions: Homo sapiens, 216 h, 30 pM R1881, 9-day treatment, CTG luminescence
Protocol: Example B-2: VCaP Growth Inhibition Assay
VCaP cells (ATCC Cat #CRL-2876) are plated at 1×10^4 cells per well of a white plastic 96-well cluster plate (Thermo Scientific Nunc Cat #165306) in 100 uL phenol red-free DMLEM (Gibco Cat #21063-029) media with […] (Omega Scientific Cat #FB-04). Cluster plates are returned to the incubator (37*C/5% CO2) for 72 hours prior to treatment. Just prior to treatment, 100 uL of phenol red-free DMEM/5% CSS and 60 pM Ri881 (Sigma Cat #R0908-10 mg) was added to each well of the cluster plates (Final R1881 concentration=30 pM). Compounds (200×) were added to each well in a volume of 1 uL, with serial dilutions (1:5) from 20 uM to 2 pM (final concentrations in well are 100 nM to 10 fMV). Cluster plates are returned to the incubator for 9 days.
After the 9-day treatment period, media was removed from the cluster plates by inversion and 100 uL room temperature CTG reagent (Promega Cat #G7573) is added to each well. The cluster plates are placed on a shaker and incubated at room temperature for 20 minutes. Following this shaking/incubation, cluster plates are read on a luminometer (BMG ClarioStar). IC50 values are obtained by graphing the RLU data vs. compound concentration with nonlinear regression 4-parameter logistic curves (GraphPad Prism).

SMILES | Average Ternary Complex [1] | IC50 [2] [nM]
CC(=O)N1CCc2c(c(N3CCCc4cc(-c5cnn(C)c5)c(C(F)F)cc43)nn2C2CCN(CCCOc3ccc(-c4ccc(N5C(=S)N(c6ccc(C#N)c(C(F)(F)F)c6)C(=O)C5(C)C)cc4)cc3)CC2)C1 [Compound 1, 4-[3-[4-[4-[3-[4-[5-acetyl-3-[7-(difluoromethyl)-6-(1-methylpyrazol-4-yl)-3,4-dihydro-2H-quinolin-1-yl]-6,7-dihydro-4H-pyrazolo[4,3-c]pyridin-1-yl]-1-piperidyl]propoxy]phenyl]phenyl]-4,4-dimethyl-5-oxo-2-thioxo-imidazolidin-1-yl]-2-(trifluoromethyl)benzonitrile] | B (B is >1 nM and ≤10 nM) | > 100
CC(=O)N1CCc2c(c(N3CCCc4cc(-c5cnn(C)c5)c(C(F)F)cc43)nn2C2CCN(CCOCCOc3ccc(C4CCN(c5ccc(C#N)c(C(F)(F)F)c5)CC4)cc3)CC2)C1 [Compound 2, 4-[4-[4-[2-[2-[4-[5-acetyl-3-[7-(difluoromethyl)-6-(1-methylpyrazol-4-yl)-3,4-dihydro-2H-quinolin-1-yl]-6,7-dihydro-4H-pyrazolo[4,3-c]pyridin-1-yl]-1-piperidyl]ethoxy]ethoxy]phenyl]-1-piperidyl]-2-(trifluoromethyl)benzonitrile] | D (D is active and >100 nM) | 
CC(=O)N1CCc2c(c(N3CCCc4cc(-c5cnn(C)c5)c(C(F)F)cc43)nn2C2CCN(CCCCOc3ccc(C4CCN(c5ccc(C#N)c(C(F)(F)F)c5)CC4)cc3)CC2)C1 [Compound 3, 4-[4-[4-[4-[4-[5-acetyl-3-[7-(difluoromethyl)-6-(1-methylpyrazol-4-yl)-3,4-dihydro-2H-quinolin-1-yl]-6,7-dihydro-4H-pyrazolo[4,3-c]pyridin-1-yl]-1-piperidyl]butoxy]phenyl]-1-piperidyl]-2-(trifluoromethyl)benzonitrile] | D (D is active and >100 nM) | 
CC(=O)N1CCc2c(c(N3CCCc4cc(-c5cnn(C)c5)c(C(F)F)cc43)nn2C2CCN(CCCOc3ccc(C4CCN(c5ccc(C#N)c(C(F)(F)F)c5)CC4)cc3)CC2)C1 [Compound 4, 4-[4-[4-[3-[4-[5-acetyl-3-[7-(difluoromethyl)-6-(1-methylpyrazol-4-yl)-3,4-dihydro-2H-quinolin-1-yl]-6,7-dihydro-4H-pyrazolo[4,3-c]pyridin-1-yl]-1-piperidyl]propoxy]phenyl]-1-piperidyl]-2-(trifluoromethyl)benzonitrile] | D (D is active and >100 nM) | > 100
CNC(=O)N1CCc2c(c(N3CCCc4cc(-c5cnn(C)c5)c(C(F)F)cc43)nn2C2CCN(C(=O)CC3CCN(c4ccc([C@H]5c6ccc(O)cc6CC[C@H]5c5ccccc5)cc4)CC3)CC2)C1 [Compound 6] |  | 1 to 100
CNC(=O)N1CCc2c(c(N3CCCc4cc(-c5cnn(C)c5)c(C(F)F)cc43)nn2C2CCN(C(=O)CCC3CCN(c4ccc([C@H]5c6ccc(O)cc6CC[C@H]5c5ccccc5)cc4)CC3)CC2)C1 [Compound 7] |  | 1 to 100
CNC(=O)N1CCc2c(c(N3CCCc4cc(-c5cnn(C)c5)c(C(F)F)cc43)nn2C2CCN(C(=O)COCC3CCN(c4ccc([C@H]5c6ccc(O)cc6CC[C@H]5c5ccccc5)cc4)CC3)CC2)C1 [Compound 8] |  | 1 to 100
CNC(=O)N1CCc2c(c(N3CCCc4cc(-c5cnn(C)c5)c(C(F)F)cc43)nn2C2CCN(C(=O)COCCCC3CCN(c4ccc([C@H]5c6ccc(O)cc6CC[C@H]5c5ccccc5)cc4)CC3)CC2)C1 [Compound 9] |  | 1 to 100
CNC(=O)N1CCc2c(c(N3CCCc4cc(-c5cnn(C)c5)c(C(F)F)cc43)nn2C2CCN(C(=O)COCCOCCN3CCN(CC4CCN(c5ccc([C@H]6c7ccc(O)cc7CC[C@H]6c6ccccc6)cc5)CC4)CC3)CC2)C1 [Compound 11] |  | > 100
CC(=O)N1CCc2c(c(N3CCCc4cc(C#N)ccc43)nn2C2CCN(C(=O)C3CCN(c4ccc(C5CCN(c6ccc(C#N)c(C(F)(F)F)c6)CC5)cc4)CC3)CC2)C1 [Compound 12, 1-[5-acetyl-1-[1-[1-[4-[1-[4-cyano-3-(trifluoromethyl)phenyl]-4-piperidyl]phenyl]piperidine-4-carbonyl]-4-piperidyl]-6,7-dihydro-4H-pyrazolo[4,3-c]pyridin-3-yl]-3,4-dihydro-2H-quinoline-6-carbonitrile] | D (D is active and >100 nM) | > 100
CC(=O)N1CCc2c(c(N3CCCc4cc(C#N)ccc43)nn2C2CCN(CC3CCN(c4ccc(C5CCN(c6ccc(C#N)c(C(F)(F)F)c6)CC5)cc4)CC3)CC2)C1 [Compound 13, 1-[5-acetyl-1-[1-[[1-[4-[1-[4-cyano-3-(trifluoromethyl)phenyl]-4-piperidyl]phenyl]-4-piperidyl]methyl]-4-piperidyl]-6,7-dihydro-4H-pyrazolo[4,3-c]pyridin-3-yl]-3,4-dihydro-2H-quinoline-6-carbonitrile] | D (D is active and >100 nM) | > 100
CC(=O)N1CCc2c(c(-c3cccc4cc(-c5ccc(CCC6CCN(c7ccc(C8CCN(c9ccc(C#N)c(C(F)(F)F)c9)CC8)cc7)CC6)nc5)ncc34)nn2C2CCOCC2)C1 [Compound 14, 4-[4-[4-[4-[2-[5-[8-(5-acetyl-1-tetrahydropyran-4-yl-6,7-dihydro-4H-pyrazolo[4,3-c]pyridin-3-yl)-3-isoquinolyl]-2-pyridyl]ethyl]-1-piperidyl]phenyl]-1-piperidyl]-2-(trifluoromethyl)benzonitrile] | D (D is active and >100 nM) | > 100
CC(=O)N1CCc2c(c(-c3cccc4cc(-c5cnn(CCOC6CCN(c7ccc(C8CCN(c9ccc(C#N)c(C(F)(F)F)c9)CC8)cc7)CC6)c5)ncc34)nn2C2CCOCC2)C1 [Compound 15, 4-[4-[4-[4-[2-[4-[8-(5-acetyl-1-tetrahydropyran-4-yl-6,7-dihydro-4H-pyrazolo[4,3-c]pyridin-3-yl)-3-isoquinolyl]pyrazol-1-yl]ethoxy]-1-piperidyl]phenyl]-1-piperidyl]-2-(trifluoromethyl)benzonitrile] | D (D is active and >100 nM) | 1 to 100
CC(=O)N1CCc2c(c(N3CCCc4cc(-c5cnn(C)c5)c(C(F)F)cc43)nn2C2CCN(C3CCC(Oc4ccc(-c5ccc(N6C(=S)N(c7ccc(C#N)c(C(F)(F)F)c7)C(=O)C6(C)C)cc5)cc4)C3)CC2)C1 (centres unmarked) [Compound 18] | B (B is >1 nM and ≤10 nM) | 
CC(=O)N1CCc2c(c(N3CCCc4cc(-c5cnn(C)c5)c(C(F)F)cc43)nn2C2CCN(C3CC(Oc4ccc(-c5ccc(N6C(=S)N(c7ccc(C#N)c(C(F)(F)F)c7)C(=O)C6(C)C)cc5)cc4)C3)CC2)C1 (centres unmarked) [Compound 19] | B (B is >1 nM and ≤10 nM) | 
CC(=O)N1CCc2c(c(N3CCCc4cc(-c5cnn(C)c5)c(C(F)F)cc43)nn2C2CCN(CCOC3CCN(c4ccc(N5C(=S)N(c6ccc(C#N)c(C(F)(F)F)c6)C(=O)C5(C)C)cc4)CC3)CC2)C1 [Compound 20] | B (B is >1 nM and ≤10 nM) | 
CC(=O)N1CCc2c(c(N3CCCc4cc(-c5cnn(C)c5)c(C(F)F)cc43)nn2C2CCN(C(=O)COC3CCN(c4ccc(N5C(=S)N(c6ccc(C#N)c(C(F)(F)F)c6)C(=O)C5(C)C)cc4)CC3)CC2)C1 [Compound 21] | B (B is >1 nM and ≤10 nM) | 

— patent US20250127908A1, “HETEROBIFUNCTIONAL CONDITIONAL INHIBITORS” (Kolm Therapeutics Inc., priority 2023, published 2025)
